Results from patent US20220081435A1, “ANDROGEN RECEPTOR PROTEIN DEGRADERS” (THE REGENTS OF THE UNIVERSITY OF MICHIGAN, priority 2019, published 2022).

Key:
[1] = molecular target: T1, AR protein (Homo sapiens, UniProt P10275, T878A); assay: AR protein degradation in LNCaP cells (Western blotting); format: cell-based; details: for % AR protein degradation in LNCaP Cells: treatment time 6 h, average of three independent experiments
T1 construct: The percent AR protein degradation induced by these compounds at various concentrations in LNCaP cells; host or cells: LNCaP
T1 sequence (P10275 1-920 T878A): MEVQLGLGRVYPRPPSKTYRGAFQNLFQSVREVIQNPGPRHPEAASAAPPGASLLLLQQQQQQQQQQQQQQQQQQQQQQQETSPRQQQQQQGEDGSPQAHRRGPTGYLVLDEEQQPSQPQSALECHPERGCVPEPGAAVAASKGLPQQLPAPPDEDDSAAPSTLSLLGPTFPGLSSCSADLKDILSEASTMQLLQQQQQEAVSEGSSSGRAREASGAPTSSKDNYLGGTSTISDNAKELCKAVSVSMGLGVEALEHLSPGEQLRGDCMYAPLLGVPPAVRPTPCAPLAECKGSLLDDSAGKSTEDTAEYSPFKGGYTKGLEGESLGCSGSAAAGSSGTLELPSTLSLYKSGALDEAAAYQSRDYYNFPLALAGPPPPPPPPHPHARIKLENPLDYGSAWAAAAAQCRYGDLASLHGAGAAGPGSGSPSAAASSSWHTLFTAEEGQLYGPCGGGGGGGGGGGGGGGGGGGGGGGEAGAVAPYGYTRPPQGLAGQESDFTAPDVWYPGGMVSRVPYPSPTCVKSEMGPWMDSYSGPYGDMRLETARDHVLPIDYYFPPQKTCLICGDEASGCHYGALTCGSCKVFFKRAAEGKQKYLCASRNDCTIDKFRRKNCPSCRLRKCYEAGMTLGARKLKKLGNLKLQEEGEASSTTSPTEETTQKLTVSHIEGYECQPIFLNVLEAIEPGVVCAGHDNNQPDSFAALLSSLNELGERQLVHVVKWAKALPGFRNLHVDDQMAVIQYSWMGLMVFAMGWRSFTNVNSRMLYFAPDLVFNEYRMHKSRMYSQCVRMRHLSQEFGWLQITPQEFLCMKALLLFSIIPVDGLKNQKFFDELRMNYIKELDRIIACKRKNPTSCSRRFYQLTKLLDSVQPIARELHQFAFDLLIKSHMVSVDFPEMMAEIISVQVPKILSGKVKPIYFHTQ
Procedure, shortened: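 LNCaP cells were cultured with 10% FBS at 37° C and lysed in RIPA buffer after treatment. AR levels were measured by Western blot. Degradation percentage was quantified by densitometry as the background-corrected AR band relative to the loading control.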

[2] = test system: AR-regulated gene expression (PSA, TMPRSS2, FKBP5, ERG); assay: Suppression of AR-regulated gene expression in VCaP cells (qRT-PCR); format: cell-based
Method: Quantitative Real-Time Polymerase Chain Reaction (qRT-PCR). Real-time PCR was performed using QuantStudio 7 Flex Real-Time PCR System as described previously.^43,44 RNA was purified using the Qiagen RNase-Free DNase set, then after quantification, the extracted RNA was converted to cDNA using High Capacity RNA-to-cDNA Kit from Applied Biosystems (Thermo Fisher Scientific). The levels of AR, TMPRSS2, FKBP5, PSA(KLK3) and GAPDH were quantified using TaqMan Fast Advanced Master Mix from Applied Biosystems. The level of gene expression was evaluated using comparative CT method, which compares the CT value to GAPDH (ACT) and then to vehicle control (ΔΔCT).

Structure (SMILES): Cc1ncsc1-c1ccc([C@H](CC(=O)N2CCC(N3CCC(C#Cc4ccc(C(=O)NC5C(C)(C)C(Oc6ccc(C#N)c(Cl)c6)C5(C)C)cc4)CC3)CC2)NC(=O)[C@@H]2C[C@@H](O)CN2C(=O)[C@@H](NC(=O)C2(F)CC2)C(C)(C)C)cc1 (stereo partly drawn) [Compound 34, (2S,4R)—N—((S)-3-(4-((4-(((1r,3r)-3-(3-Chloro-4-cyanophenoxy)-2,2,4,4-tetramethyl-cyclobutyl)carbamoyl)phenyl)ethynyl)-[1,4′-bipiperidin]-1′-yl)-1-(4-(4-methylthiazol-5-yl)phenyl)-3-oxopropyl)-1-((S)-2-(1-fluorocyclopropane-1-carboxamido)-3,3-dimethylbutanoyl)-4-hydroxypyrrolidine-2-carboxamide]
- % AR protein degradation in LNCaP Cells ([1]; 0.01 μM): 89%
- % AR protein degradation in LNCaP Cells ([1]; 0.1 μM): 99%
- % AR protein degradation in LNCaP Cells ([1]; 1 μM): 100%
- AR degradation ([1]; LNCaP, 10 nM, 24 h treatment): > 95%
- Time to effective reduction of AR protein level ([1]; LNCaP, 100 nM): ≤ 2 h
- AR depletion with a 4 h treatment ([1]; LNCaP, 100 nM, 4 h): near-complete AR depletion
- DC50 ([1]; LNCaP, 24 h treatment, read-out: DC50 (drug concentration that results in 50% protein degradation)): 0.86 nM
- AR degradation (Western blotting, dose-dependent) ([1]; LNCaP, at 10 nM): partial AR degradation
- AR degradation (Western blotting, dose-dependent) ([1]; LNCaP, at both 100 nM and 1 μM): essentially complete AR degradation
- Rank as AR degrader among 32, 34 and 35 ([1]; LNCaP, based upon the data obtained at 10 nM): most potent
- AR degradation after pretreatment with AR antagonist (6), VHL-d, MLN4924 or MG132 ([1]; LNCaP, data not shown): effectively blocked
- Potency relative to AR antagonist 6 in suppressing AR-regulated gene transcription [2]: > 100 times
- Reduction of mRNA level of both PSA and TMPRSS2 genes ([2]; 10 nM): > 50%
- ERG gene expression ([2]; dose-dependent): suppresses
- Expression of PSA, TMPRSS2 and FKBP5 genes ([2]; dose-dependent, data not shown): effectively suppressed
